Experimental data published in US20150080844A1, “THERAPY FOR KIDNEY DISEASE AND/OR HEART FAILURE BY INTRADERMAL INFUSION” (Medtronic, Inc., priority 2012, published 2015).
Read-outs that look alike come from different tables or passages of the source.

What was measured:
[1] = in vivo, iv, 50 ug; cited from earlier work
clinical = assay: clinical; set-up: species or system humans; conditions: in vivo; for bioavailability: F (bioavailability)
Procedure: (§1) Osterode et al. published plasma concentration data for humans injected with ANP by either SQ or IV bolus. FIG. 5 presents the IV bolus data (FIG. 5A) and SQ bolus data (FIG. 5B) from the Osterode et al. with selected points digitized shown by open circles.
(§2) The digitized data points from FIG. 5A and FIG. 5B were baseline-corrected and analyzed using a commercial pharmacokinetic analysis software package (Phoenix v6.2, Pharsight, Cary, N.C.). Non-compartmental analysis (NCA) was performed first, followed by compartmental modeling. Bioavailability for administration into the SQ space (F) was estimated by dividing the area-under-the-curve (AUC) for the SQ bolus (FIG. 5B) by the AUC IV bolus (FIG. 5A), which was assumed to have 100% bioavailability. The slope of the terminal phase (λZ) for the IV and SQ data from FIG. 5 was estimated using linear regression. The estimate for λZ was converted to a half-life (t1/2) using Equation 1.
Similarly, the one-compartmental model for SQ bolus injection can be modeled by Equations 4 and 5, where Aa is the amount of drug in the injection site (pmol), ka is the absorption rate constant (1/min), and F is the bioavailability as a unitless decimal. The initial estimates for primary model parameters ke and V/F were taken from the results of the NCA analysis of the IV data (ke=λZ) from the IV bolus data in FIG. 5A from Osterode et al. The initial estimate for the primary model parameter ka was taken from the results of the NCA analysis of the SQ data (ka=λZ) from the SQ bolus data in FIG. 5B. Clearance (CL) and t½ were calculated as secondary model parameters.
Table 1 reports the values for AUC, elimination t1/2, volume of distribution (V) and clearance (CL) reported by Osterode et al. compared to those obtained from the NCA analysis of the digitized data as described above.
The results of the one-compartment modeling of the data from Osterode et al. are reported in Table 2 and FIG. 7, where the present NCA results are also included for comparison. FIGS. 7A (log scale) and 7B (non-log scale) show a model for a 50 μg IV bolus and FIGS. 7C (log scale) and 7D (non-log scale) show a model for a 50 μg SQ bolus. Both the NCA and compartmental analysis estimate the bioavailability to be approximately 20%. It is notable that the estimates for ka from the SQ bolus data are nearly identical for the NCA and compartmental analysis (0.039 min^−1), while the compartmental analysis estimate for ke is 2.6-times greater than the NCA estimate (0.26 vs. 0.099 min^−1).

[2] = in vivo, cited from earlier work
[3] = set-up: species or system humans; conditions: in vivo
Procedure: as §1
as §2, with “1. […]” for “1.”
Similarly, the one-compartmental model for SQ bolus injection can be modeled by Equations 4 and 5, where Aa is the amount of drug in the injection site (pmol), ka is the absorption rate constant (1/min), and F is the bioavailability as a unitless decimal. […] Clearance (CL) and t½ were calculated as secondary model parameters. […]

[4] = intradermal delivery; literature; cited from earlier work

Row | Compound | AUC [1] [pmol·min/L] | AUC (clinical; human, 50 ug) [pmol·min/L] | bioavailability (clinical; human) [%] | F (bioavailability) (clinical; human, iv) [%] | bioavailability (clinical; human, iv) [%] | V/F (clinical) [L] | compartmental analysis estimate for ke relative to NCA estimate (clinical) [times] | ke (clinical) [min⁻¹] | ke/ka (elimination greater than absorption) (clinical) | F (bioavailability) ([2]; human) [%] | AUC ([2]; 50 ug) [pmol·min/L] | mean terminal half-life, SQ bolus compared to IV bolus ([2]; 50 ug) [fold] | AUC ([3]; human, iv, 50 ug) [pmol·min/L] | ke [3] [min⁻¹] | bioavailability (in words) [4]
1 | CC[C@H](C)[C@@H]1NC(=O)[C@H](CCCNC(=N)N)NC(=O)[C@H](CC(=O)O)NC(=O)[C@H](CCSC)NC(=O)[C@H](CCCNC(=N)N)NC(=O)CNC(=O)CNC(=O)[C@H](Cc2ccccc2)NC(=O)[C@@H](NC(=O)[C@H](CO)NC(=O)[C@H](CO)NC(=O)[C@H](CCCNC(=N)N)NC(=O)[C@H](CCCNC(=N)N)NC(=O)[C@H](CC(C)C)NC(=O)[C@@H](N)CO)CSSC[C@@H](C(=O)N[C@@H](CC(N)=O)C(=O)N[C@@H](CO)C(=O)N[C@@H](Cc2ccccc2)C(=O)N[C@@H](CCCNC(=N)N)C(=O)N[C@@H](Cc2ccc(O)cc2)C(=O)O)NC(=O)CNC(=O)[C@H](CC(C)C)NC(=O)CNC(=O)[C@H](CO)NC(=O)[C@H](CCC(N)=O)NC(=O)[C@H](C)NC(=O)CNC1=O [ANP, atrial natriuretic peptide] | 1793 | 344 | ~20 | 19.9 | ~20 | 167 | 2.6 | 0.26 | 6.6 | 19.2 | 345 | 3 | 1731 | 0.099 | –
2 | Entanercept | – | – | – | – | – | – | – | – | – | – | – | – | – | – | high bioavailability
3 | Somatropin | – | – | – | – | – | – | – | – | – | – | – | – | – | – | high bioavailability
